The structures appear in SMILES notation.

Consider seven compounds from US11291672B2, “Betamethasone oral spray formulation and method of use to treat ataxia” (GRACE THERAPEUTICS LLC, priority 2016, dated 2022).

For data set [1] the following is noted: cited from earlier work.
Data set [2] can be described thus: Solubility in purified water. Particulars: vortex 5 minutes.
Description: Respective salt and base forms of betamethasone and dexamethasone were weighed and transferred in the glass test tube.
Data set [3] deals with neurological symptoms in ataxia telangiectasia. Particulars: 0.1 mg/kg/day, cited from earlier work.
Data set [4] deals with ataxia symptoms in children with AT. The conditions noted are these: cited from earlier work.
The conditions of data set [5]: comparison among glucocorticoids; cited from earlier work.

On to `C[C@H]1CC2C3CCC4=CC(=O)C=C[C@]4(C)[C@@]3(F)[C@@H](O)C[C@]2(C)[C@@]1(O)C(=O)COP(=O)(O)O` (stereo partly drawn) [Betamethasone disodium phosphate, 9-Fluoro-11β,17,21-trihydroxy-16β-methylpregna-1,4-diene-3,20-dione 21-(disodium phosphate)], for which the “solubility (in words)” value in data set [1] is on record as “soluble”. Besides, in data set [1] (strongly influenced by storage temperature), the “stability in aqueous solution” value is reported as “very low”. Moreover, the “Solubility in purified water” value in data set [2] (Concentration 0.25 mg/0.14 ml), in data set [2] (Concentration 0.50 mg/0.14 ml), in data set [2] (Concentration 1.00 mg/0.14 ml), in data set [2] (Concentration 1.50 mg/0.14 ml), in data set [2] (Concentration 2.00 mg/0.14 ml) and in data set [2] (Concentration 4.00 mg/0.14 ml) was “Soluble” throughout. Besides, the “Solubility in purified water” value in data set [2] (Concentration 8.00 mg/0.14 ml) is given as “Soluble”.

Take `C[C@@H]1C[C@H]2[C@@H]3CCC4=CC(=O)C=C[C@]4(C)[C@@]3(F)[C@@H](O)C[C@]2(C)[C@@]1(O)C(=O)COP(=O)([O-])[O-].[Na+].[Na+]` [Dexamethasone disodium phosphate]: the “Solubility in purified water” value in data set [2] (Concentration 1.00 mg/0.14 ml), in data set [2] (Concentration 2.00 mg/0.14 ml), in data set [2] (Concentration 4.00 mg/0.14 ml) and in data set [2] (Concentration 8.00 mg/0.14 ml) was “Soluble” in each case.

As to `C[C@H]1C[C@H]2[C@@H]3CCC4=CC(=O)C=C[C@]4(C)[C@@]3(F)[C@@H](O)C[C@]2(C)[C@@]1(O)C(=O)CO` [betamethasone], the “change in phenotypic appearance (adverse effect)” value in data set [3] (4 weeks) is “moon face”. Besides, the “body weight at 4 weeks” value in data set [3] (from 15.5 kg) is recorded as 19.0 kg. In addition, in data set [4] (13 children), the “patients with moon face” value is 8 patients and the “patients with small increases in body weight” value was 12 patients. For the same compound, in data set [4] (in vivo), the “adverse events in the trial” value was “minimal”. Besides, in data set [2] (Concentration 0.25 mg/0.14 ml), the “Solubility in purified water” value is recorded as “Not Soluble”.

Consider `C[C@@H]1C[C@H]2[C@@H]3CCC4=CC(=O)C=C[C@]4(C)[C@@]3(F)[C@@H](O)C[C@]2(C)[C@@]1(O)C(=O)CO` [dexamethasone], for which the “Solubility in purified water” value in data set [2] (Concentration 0.25 mg/0.14 ml) is listed as “Not Soluble”.

Turning to `C[C@]12CCC(=O)C=C1CC[C@@H]1[C@@H]2[C@@H](O)C[C@@]2(C)[C@H]1CC[C@]2(O)C(=O)CO` [hydrocortisone], the equivalent mg dosage in data set [5] is given as 20 mg.

In the case of `C[C@]12C=CC(=O)C=C1CC[C@@H]1[C@@H]2[C@@H](O)C[C@@]2(C)[C@H]1CC[C@]2(O)C(=O)CO` [prednisolone], the equivalent mg dosage in data set [5] was 5 mg.

Regarding `C[C@]12C=CC(=O)C=C1CC[C@H]1[C@@H]3C[C@@H](O)[C@](O)(C(=O)CO)[C@@]3(C)C[C@H](O)[C@@]12F` [triamcinolone], in data set [5], the equivalent mg dosage was 4 mg.
